Source: US12083105B2, “Compositions and methods for treating adult-onset neuronal ceroid lipofuscinosis (Kufs disease)” (CORNELL UNIVERSITY, priority 2020, dated 2024)

Key:
[1] = tested on: CSPα^L115R and CSPα^L116Δ; assay: CSPα oligomerization and palmitoylation in CSPα−/− primary cortical neurons expressing ANCL mutants (SDS-PAGE, quantitative immunoblotting); format: cell-based, mice; details: 200 μM, 72 h, FIG. 3D; for oligomerization of CSPα^L115R and CSPα^L116Δ: vs vehicle (0.1% DMSO); for palmitoylation of CSPα^L115R and CSPα^L116Δ: vs vehicle
[2] = tested on: ANCL iNs; assay: Lipofuscin autofluorescence in ANCL iNs; format: cell-based, human; details: ANCL iNs treated for 56 d from iN conversion (prevention); compared to control; FIG. 7E
Description: ANCL patient-derived fibroblasts were treated with 200 μM of L1 or Dfx, or vehicle (0.1% DMSO=Control) for 72 h, before measuring the UV-Vis absorbance spectra of immunoprecipitated CSPα eluted by trypsinization (solid lines). Spectra were re-read after 10 min of 0.1 N HCl treatment (dashed lines). The experiments shown in FIGS. 7B-7I, were conducted using ANCL fibroblasts converted to iNs using BAM+ND1 technique. […] Quantitative immunoblotting was used to measure levels of oligomerized and fully palmitoylated CSPα as well as total SNAP-25. Oligo=oligomers; Palm=palmitoylated. […] The interaction of CSPα with SNAP-25 in ANCL iNs was measured by immunoprecipitating SNAP-25 followed by quantitative immunoblotting of co-immunoprecipitated CSPα (normalized to SNAP-25 IP). Note that mainly CSPα monomers and not oligomers were detected bound to SNAP-25. […] Turnover of SNAP-25 was determined by cycloheximide chase, while maintaining the iron-chelators or vehicle in the medium. […] In the experiments shown in FIGS. 7E-7G, ANCL iNs treated with L1, Dfx, or vehicle for 56 d and analyzed. […] The levels of lipofuscin were determined by ELISA. In the experiments shown in FIGS. 7H-7I 56 day old untreated ANCL iNs were treated with L1, Dfx, or vehicle, and analyzed. […]
(§1) Effect of iron chelators on the accumulation of lipofuscin was monitored by ELISA for lipofuscin or based on lipofuscin autofluorescence. […]

[3] = tested on: CSPα with SNAP-25; assay: Interaction of CSPα with SNAP-25 in ANCL iNs (SNAP-25 IP, co-IP of CSPα); format: cell-based, human; details: 72 h, compared to control, FIG. 7C
Description: (§2) ANCL patient-derived fibroblasts were treated with 200 μM of L1 or Dfx, or vehicle (0.1% DMSO=Control) for 72 h, before measuring the UV-Vis absorbance spectra of immunoprecipitated CSPα eluted by trypsinization (solid lines). Spectra were re-read after 10 min of 0.1 N HCl treatment (dashed lines). The experiments shown in FIGS. 7B-7I, were conducted using ANCL fibroblasts converted to iNs using BAM+ND1 technique. […] Quantitative immunoblotting was used to measure levels of oligomerized and fully palmitoylated CSPα as well as total SNAP-25. Oligo=oligomers; Palm=palmitoylated. […] The interaction of CSPα with SNAP-25 in ANCL iNs was measured by immunoprecipitating SNAP-25 followed by quantitative immunoblotting of co-immunoprecipitated CSPα (normalized to SNAP-25 IP). Note that mainly CSPα monomers and not oligomers were detected bound to SNAP-25. Control=control sham IP without IgG. […] Turnover of SNAP-25 was determined by cycloheximide chase, while maintaining the iron-chelators or vehicle in the medium. […] In the experiments shown in FIGS. 7E-7G, ANCL iNs treated with L1, Dfx, or vehicle for 56 d and analyzed. […] The levels of lipofuscin were determined by ELISA. In the experiments shown in FIGS. 7H-7I 56 day old untreated ANCL iNs were treated with L1, Dfx, or vehicle, and analyzed. […]

[4] = tested on: SNAP-25; assay: SNAP-25 turnover in ANCL iNs by cycloheximide chase; format: cell-based, human; details: 72 h pretreatment, cycloheximide chase in presence of chelator, FIG. 7D
Description: as §2

[5] = tested on: ATP5G; assay: ATP5G accumulation in ANCL iNs (quantitative immunoblotting); format: cell-based, human; details: for accumulation of ATP5G: ANCL iNs treated for 56 d (prevention), FIG. 7F; for ATP5G levels: added to ANCL iNs after 56 days of lipofuscin accumulation, followed 3 weeks (treatment), compared to control, FIG. 7H
Description: ANCL patient-derived fibroblasts were treated with 200 μM of L1 or Dfx, or vehicle (0.1% DMSO=Control) for 72 h, before measuring the UV-Vis absorbance spectra of immunoprecipitated CSPα eluted by trypsinization (solid lines). Spectra were re-read after 10 min of 0.1 N HCl treatment (dashed lines). The experiments shown in FIGS. 7B-7I, were conducted using ANCL fibroblasts converted to iNs using BAM+ND1 technique. […] Quantitative immunoblotting was used to measure levels of oligomerized and fully palmitoylated CSPα as well as total SNAP-25. Oligo=oligomers; Palm=palmitoylated. […] The interaction of CSPα with SNAP-25 in ANCL iNs was measured by immunoprecipitating SNAP-25 followed by quantitative immunoblotting of co-immunoprecipitated CSPα (normalized to SNAP-25 IP). Note that mainly CSPα monomers and not oligomers were detected bound to SNAP-25. Control=control sham IP without IgG. […] Turnover of SNAP-25 was determined by cycloheximide chase, while maintaining the iron-chelators or vehicle in the medium. […] In the experiments shown in FIGS. 7E-7G, ANCL iNs treated with L1, Dfx, or vehicle for 56 d and analyzed. […] The levels of lipofuscin were determined by ELISA. In the experiments shown in FIGS. 7H-7I 56 day old untreated ANCL iNs were treated with L1, Dfx, or vehicle, and analyzed. […] Data are from FIG. 7A representative of n=4, FIG. 7B n=4, FIG. 7C n=4, FIG. 7D n=7, FIG. 7F n=4, FIG. 7G n=4, FIG. 7H n=6, FIG. 7I n=3. In FIGS. 7B-7C and FIGS. 7F-7G *P<0.05; **P<0.01; ****P<0.0001 by two-tailed Student's t-test. #P<0.05 by Mann-Whitney-Wilcoxon U test. In FIG. 7D-7C and FIGS. 7H-7I **P<0.01; ***P<0.001; ****P<0.0001 by two-way ANOVA; ##P<0.01; ###P<0.001; ####P<0.0001 by Tukey's multiple comparisons test.
For SDS-PAGE, 10-15% Laemmli gels (10.3% T and 3.3% C) were used to separate proteins on Bio-Rad apparati. Proteins were transferred onto nitrocellulose (pore-size=[…]; GE Healthcare) and blocked with 5% w/v fat-free dry milk in tris buffered saline, pH 7.5 supplemented with 0.1% Tween 20 (TBS-T). Immunoblotting was performed by incubating the blocked membranes with primary antibodies in blocking buffer for 8-16 hours. Following 5 washes with TBS-Tween 20 (0.1%). Blots were incubated with secondary antibodies (goat anti-rabbit conjugated to IRDye […] or 800CW; LI-COR) at 1/5000 in blocking buffer for 1-3 hours. Immunoblots were washed 5× with TBS-T and dried, then scanned on Odyssey CLx (LI-COR) and quantified using Image-Studio software (LI-COR).
For ATPSG immunoblots, following the transfer, nitrocellulose membranes were dried and fixed for 15 min at room temperature in 0.2% glutaraldehyde in PBS. […]
as §1

SMILES: Cc1c(O)c(=O)ccn1C [L1, 3-hydroxy-1,2-dimethyl-4(1H)-pyridone]
- oligomerization of CSPα^L115R and CSPα^L116Δ [1]: reduced the oligomerization
- palmitoylation of CSPα^L115R and CSPα^L116Δ [1]: improved
- lipofuscin autofluorescence [2]: reduced
- interaction of CSPα with SNAP-25 [3]: improved
- turnover of SNAP-25 [4]: decreased turnover
- accumulation of ATP5G [5]: trend toward reduced accumulation
- ATP5G levels [5]: diminished down to similar levels as observed in the prevention experiments

SMILES: CC(=O)N(O)CCCCCNC(=O)CCC(=O)N(O)CCCCCNC(=O)CCC(=O)N(O)CCCCCN [Dfx, N′-[5-(Acetyl-hydroxy-amino)pentyl]-N-[5-[3-(5-aminopentyl-hydroxy-carbamoyl)propanoylamino]pentyl]-N-hydroxy-butane diamide]
- oligomerization of CSPα^L115R and CSPα^L116Δ [1]: reduced the oligomerization
- palmitoylation of CSPα^L115R and CSPα^L116Δ [1]: improved
- lipofuscin autofluorescence [2]: reduced
- interaction of CSPα with SNAP-25 [3]: improved
- turnover of SNAP-25 [4]: decreased turnover
- accumulation of ATP5G [5]: trend toward reduced accumulation
- ATP5G levels [5]: diminished down to similar levels as observed in the prevention experiments
